Results from the supplement of paper PMC10307832.

Tests used:
Experiment in all cases: relative viability (nuclei count vs DMSO), 5 days (fraction); higher = more cells survive
HCC-15 = test system: HCC-15
Method in brief: (§1)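 Relative viability was taken as the ratio of nuclei in treated wells to nuclei in vehicle wells. Lung cancer cell lines in 1536-well plates received compounds by pin tool one day after seeding, either one drug alone or a fixed anchor-drug dose plus five library-drug doses (not always all listed) in √10 steps. Nuclei were counted on 4× images after 5 days of treatment, and values are medians of duplicate plates.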

UMC-11 = test system: UMC-11
Method in brief: as §1

NCI-H1755 = test system: NCI-H1755
Method in brief: as §1

EKVX = test system: EKVX
Method in brief: as §1

NCI-H1623 = test system: NCI-H1623
Method in brief: as §1

LCLC-103H = test system: LCLC-103H
Method in brief: as §1

NCI-H1395 = test system: NCI-H1395
Method in brief: as §1

## O=c1cc(N2CCOCC2)oc2c(-c3cccc4c3sc3ccccc34)cccc12 + Cc1nc(Nc2ncc(C(=O)Nc3c(C)cccc3Cl)s2)cc(N2CCN(CCO)CC2)n1 [Dasatinib] (partner 0.075 µM)
HCC-15; first compound 0.01 µM
  relative viability: 0.63
HCC-15; first compound 0.03162 µM
  relative viability: 0.675
HCC-15; first compound 0.1 µM
  relative viability: 0.697
HCC-15; first compound 0.3162 µM
  relative viability: 0.577
HCC-15; first compound 1 µM
  relative viability: 0.602
UMC-11; first compound 0.01 µM
  relative viability: 0.452
UMC-11; first compound 0.03162 µM
  relative viability: 0.471
UMC-11; first compound 0.1 µM
  relative viability: 0.487
UMC-11; first compound 0.3162 µM
  relative viability: 0.439
UMC-11; first compound 1 µM
  relative viability: 0.527
NCI-H1755; first compound 0.01 µM
  relative viability: 0.511
NCI-H1755; first compound 0.03162 µM
  relative viability: 0.412
NCI-H1755; first compound 0.1 µM
  relative viability: 0.471
NCI-H1755; first compound 0.3162 µM
  relative viability: 0.416
NCI-H1755; first compound 1 µM
  relative viability: 0.415
EKVX; first compound 0.01 µM
  relative viability: 0.528
EKVX; first compound 0.03162 µM
  relative viability: 0.469
EKVX; first compound 0.1 µM
  relative viability: 0.672
EKVX; first compound 0.3162 µM
  relative viability: 0.607
EKVX; first compound 1 µM
  relative viability: 0.605
NCI-H1623; first compound 0.01 µM
  relative viability: 0.456
NCI-H1623; first compound 0.03162 µM
  relative viability: 0.517
NCI-H1623; first compound 0.1 µM
  relative viability: 0.402
NCI-H1623; first compound 0.3162 µM
  relative viability: 0.5
NCI-H1623; first compound 1 µM
  relative viability: 0.438
LCLC-103H; first compound 0.01 µM
  relative viability: 0.491
LCLC-103H; first compound 0.03162 µM
  relative viability: 0.412
LCLC-103H; first compound 0.1 µM
  relative viability: 0.539
LCLC-103H; first compound 0.3162 µM
  relative viability: 0.449
LCLC-103H; first compound 1 µM
  relative viability: 0.401
NCI-H1395; first compound 0.01 µM
  relative viability: 0.422
NCI-H1395; first compound 0.03162 µM
  relative viability: 0.393
NCI-H1395; first compound 0.1 µM
  relative viability: 0.407
NCI-H1395; first compound 0.3162 µM
  relative viability: 0.367
NCI-H1395; first compound 1 µM
  relative viability: 0.454

## CCN(CC)CCCCNc1ncc2cc(-c3cc(OC)cc(OC)c3)c(NC(=O)NC(C)(C)C)nc2n1 + Cc1nc(Nc2ncc(C(=O)Nc3c(C)cccc3Cl)s2)cc(N2CCN(CCO)CC2)n1 [Dasatinib] (partner 0.075 µM)
HCC-15; first compound 0.01 µM
  relative viability: 0.613
HCC-15; first compound 0.03162 µM
  relative viability: 0.7
HCC-15; first compound 0.1 µM
  relative viability: 0.681
HCC-15; first compound 0.3162 µM
  relative viability: 0.748
HCC-15; first compound 1 µM
  relative viability: 0.554
UMC-11; first compound 0.01 µM
  relative viability: 0.541
UMC-11; first compound 0.03162 µM
  relative viability: 0.485
UMC-11; first compound 0.1 µM
  relative viability: 0.722
UMC-11; first compound 0.3162 µM
  relative viability: 0.581
UMC-11; first compound 1 µM
  relative viability: 0.405
NCI-H1755; first compound 0.01 µM
  relative viability: 0.394
NCI-H1755; first compound 0.03162 µM
  relative viability: 0.464
NCI-H1755; first compound 0.1 µM
  relative viability: 0.518
NCI-H1755; first compound 0.3162 µM
  relative viability: 0.621
NCI-H1755; first compound 1 µM
  relative viability: 0.207
EKVX; first compound 0.01 µM
  relative viability: 0.547
EKVX; first compound 0.03162 µM
  relative viability: 0.604
EKVX; first compound 0.1 µM
  relative viability: 0.57
EKVX; first compound 0.3162 µM
  relative viability: 0.563
EKVX; first compound 1 µM
  relative viability: 0.349
NCI-H1623; first compound 0.01 µM
  relative viability: 0.504
NCI-H1623; first compound 0.03162 µM
  relative viability: 0.449
NCI-H1623; first compound 0.1 µM
  relative viability: 0.579
NCI-H1623; first compound 0.3162 µM
  relative viability: 0.571
NCI-H1623; first compound 1 µM
  relative viability: 0.516
LCLC-103H; first compound 0.01 µM
  relative viability: 0.424
LCLC-103H; first compound 0.03162 µM
  relative viability: 0.623
LCLC-103H; first compound 0.1 µM
  relative viability: 0.596
LCLC-103H; first compound 0.3162 µM
  relative viability: 0.554
LCLC-103H; first compound 1 µM
  relative viability: 0.331
NCI-H1395; first compound 0.01 µM
  relative viability: 0.421
NCI-H1395; first compound 0.03162 µM
  relative viability: 0.422
NCI-H1395; first compound 0.1 µM
  relative viability: 0.753
NCI-H1395; first compound 0.3162 µM
  relative viability: 0.386
NCI-H1395; first compound 1 µM
  relative viability: 0.411

## O=c1cc(-c2cccc3c2Sc2ccccc2S3)oc(N2CCOCC2)c1 + Cc1nc(Nc2ncc(C(=O)Nc3c(C)cccc3Cl)s2)cc(N2CCN(CCO)CC2)n1 [Dasatinib] (partner 0.075 µM)
HCC-15; first compound 0.08 µM
  relative viability: 0.606
HCC-15; first compound 0.253 µM
  relative viability: 0.733
HCC-15; first compound 0.8 µM
  relative viability: 0.546
HCC-15; first compound 2.53 µM
  relative viability: 0.563
HCC-15; first compound 8 µM
  relative viability: 0.659
UMC-11; first compound 0.08 µM
  relative viability: 0.537
UMC-11; first compound 0.253 µM
  relative viability: 0.591
UMC-11; first compound 0.8 µM
  relative viability: 0.535
UMC-11; first compound 2.53 µM
  relative viability: 0.433
UMC-11; first compound 8 µM
  relative viability: 0.752
NCI-H1755; first compound 0.08 µM
  relative viability: 0.434
NCI-H1755; first compound 0.253 µM
  relative viability: 0.44
NCI-H1755; first compound 0.8 µM
  relative viability: 0.416
NCI-H1755; first compound 2.53 µM
  relative viability: 0.324
NCI-H1755; first compound 8 µM
  relative viability: 0.381
EKVX; first compound 0.08 µM
  relative viability: 0.605
EKVX; first compound 0.253 µM
  relative viability: 0.517
EKVX; first compound 0.8 µM
  relative viability: 0.315
EKVX; first compound 2.53 µM
  relative viability: 0.501
EKVX; first compound 8 µM
  relative viability: 0.355
NCI-H1623; first compound 0.08 µM
  relative viability: 0.488
NCI-H1623; first compound 0.253 µM
  relative viability: 0.568
NCI-H1623; first compound 0.8 µM
  relative viability: 0.501
NCI-H1623; first compound 2.53 µM
  relative viability: 0.57
NCI-H1623; first compound 8 µM
  relative viability: 0.536
LCLC-103H; first compound 0.08 µM
  relative viability: 0.416
LCLC-103H; first compound 0.253 µM
  relative viability: 0.503
LCLC-103H; first compound 0.8 µM
  relative viability: 0.528
LCLC-103H; first compound 2.53 µM
  relative viability: 0.439
LCLC-103H; first compound 8 µM
  relative viability: 0.551
NCI-H1395; first compound 0.08 µM
  relative viability: 0.425
NCI-H1395; first compound 0.253 µM
  relative viability: 0.366
NCI-H1395; first compound 0.8 µM
  relative viability: 0.436
NCI-H1395; first compound 2.53 µM
  relative viability: 0.338
NCI-H1395; first compound 8 µM
  relative viability: 0.386
